Results from PubChem BioAssay AID330 (DTP/NCI, 2004).
Values joined by “and” are separate entries in the source; they are usually repeats but may differ in a detail not shown here. Identical values can stand only once. Inconclusive results and toxic doses are left out. The calls were made as follows: active = survival T/C of 150% or more; inactive = T/C below 125% in these data. Peptide text beside a SMILES is read from it.

Test system: P388 leukemia ip, CD2F1 mice, survival T/C
Experiment: NCI In Vivo Anticancer Drug Screen. Data for tumor model P388 Leukemia (intraperitoneal) in CD2F1 (CDF1) mice
Conditions: endpoint: median survival time, higher = longer survival
Procedure, shortened: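 Mice carrying the transplanted tumor received test compound or vehicle. Survival was recorded in each group, and the value is the treated-group measurement divided by that of the vehicle-treated control group.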

[1] = dose: 6.25 mg/kg/injection, schedule: Q01DX005 (ip), vehicle: Klucel (hydroxypropylcellulose) (HPC)
[2] = dose: 12.5 mg/kg/injection, schedule: Q01DX005 (ip), vehicle: Klucel (hydroxypropylcellulose) (HPC)
[3] = dose: 25.0 mg/kg/injection, schedule: Q01DX005 (ip), vehicle: Klucel (hydroxypropylcellulose) (HPC)
[4] = dose: 100.0 mg/kg/injection, schedule: Q01DX001 (ip), vehicle: saline with Tween-80
[5] = dose: 50.0 mg/kg/injection, schedule: Q01DX009 (ip), vehicle: saline
[6] = dose: 100.0 mg/kg/injection, schedule: Q01DX009 (ip), vehicle: saline
[7] = dose: 200.0 mg/kg/injection, schedule: Q01DX009 (ip), vehicle: saline
[8] = dose: 50.0 mg/kg/injection, schedule: Q01DX005 (ip), vehicle: saline with Tween-80
[9] = dose: 100.0 mg/kg/injection, schedule: Q01DX005 (ip), vehicle: saline with Tween-80
[10] = dose: 200.0 mg/kg/injection, schedule: Q01DX005 (ip), vehicle: saline with Tween-80
[11] = dose: 25.0 mg/kg/injection, schedule: Q01DX009 (ip), vehicle: saline with Tween-80
[12] = dose: 50.0 mg/kg/injection, schedule: Q01DX005 (ip), vehicle: Klucel (hydroxypropylcellulose) (HPC)
[13] = dose: 100.0 mg/kg/injection, schedule: Q01DX005 (ip), vehicle: Klucel (hydroxypropylcellulose) (HPC)
[14] = dose: 200.0 mg/kg/injection, schedule: Q01DX005 (ip), vehicle: Klucel (hydroxypropylcellulose) (HPC)
[15] = dose: 60.0 mg/kg/injection, schedule: Q01DX005 (ip), vehicle: saline
[16] = dose: 120.0 mg/kg/injection, schedule: Q01DX005 (ip), vehicle: saline
[17] = dose: 240.0 mg/kg/injection, schedule: Q01DX005 (ip), vehicle: saline

Measured: T/C

C=C(C1=CC(=O)C(C)=C(OC)C1=O)C(CC=C(C)C)OC(=O)/C(C)=C/C (stereo unspecified)
inactive: dose: 1.56 mg/kg/injection, schedule: Q01DX005 (ip), vehicle: Klucel (hydroxypropylcellulose) (HPC) 92 % of control | dose: 3.12 mg/kg/injection, schedule: Q01DX005 (ip), vehicle: Klucel (hydroxypropylcellulose) (HPC) 99 % of control | [1] 101 % of control | [2] 96 % of control | [3] 102 % of control

Cc1c[nH]c2nc(C)n(-c3ccc(F)cc3)c(=N)c12
inactive: [1] 100 % of control | [2] 102 % of control | [3] 100 % of control

CCOc1ccc(-n2c(=O)c(N=Nc3ccc(C)cc3)c(O)n(-c3ccc(Br)cc3)c2=S)cc1
inactive: dose: 100.0 mg/kg/injection, schedule: Q04DX002 (ip), vehicle: saline with Tween-80 96 % of control | dose: 200.0 mg/kg/injection, schedule: Q04DX002 (ip), vehicle: saline with Tween-80 94 % of control | dose: 400.0 mg/kg/injection, schedule: Q04DX002 (ip), vehicle: saline with Tween-80 90 % of control

CN1C(=S)C2(C1c1ccccc1)C(C)(C)CCCC2(C)C (stereo unspecified)
inactive: [4] 92 % of control | dose: 200.0 mg/kg/injection, schedule: Q01DX001 (ip), vehicle: saline with Tween-80 92 % of control | dose: 400.0 mg/kg/injection, schedule: Q01DX001 (ip), vehicle: saline with Tween-80 87 % of control

O=C(OC1C2CCC2C2CC21)c1ccc([N+](=O)[O-])cc1[N+](=O)[O-] (stereo unspecified)
inactive: [5] 105 % of control | [6] 99 % of control and 92 % of control | [7] 92 % of control and 93 % of control

CCCCOC(=O)CC(C(=O)OCCCC)C(C(=O)OCCCC)P(=O)(OCCCC)OCCCC (stereo unspecified)
inactive: [8] 99 % of control | [9] 100 % of control | [10] 98 % of control

COc1cc(C(=O)OC2c3ccccc3CCC2N(C)C)cc(OC)c1OC (stereo unspecified)
inactive: [11] 98 % of control | dose: 50.0 mg/kg/injection, schedule: Q01DX009 (ip), vehicle: saline with Tween-80 91 % of control

COc1ccc2c(=O)c3cc([N+](=O)[O-])ccc3n(C)c2c1
inactive: dose: 12.5 mg/kg/injection, schedule: Q01DX001 (ip), vehicle: saline with Tween-80 100 % of control | dose: 25.0 mg/kg/injection, schedule: Q01DX001 (ip), vehicle: saline with Tween-80 97 % of control | dose: 50.0 mg/kg/injection, schedule: Q01DX001 (ip), vehicle: saline with Tween-80 94 % of control | [4] 94 % of control

CC1CC(C)(O)CC(C(O)CC2CC(=O)NC(=O)C2)C1=O (stereo unspecified)
inactive: dose: 77.8 micrograms/kg/injection, schedule: Q01DX009 (ip), vehicle: saline 123 % of control | dose: 467.0 micrograms/kg/injection, schedule: Q04DX003 (ip), vehicle: saline 120 % of control | dose: 778.0 micrograms/kg/injection, schedule: Q04DX003 (ip), vehicle: saline 120 % of control | dose: 1300.0 micrograms/kg/injection, schedule: Q04DX003 (ip), vehicle: saline 120 % of control | dose: 2160.0 micrograms/kg/injection, schedule: Q04DX003 (ip), vehicle: saline 124 % of control | dose: 3600.0 micrograms/kg/injection, schedule: Q04DX003 (ip), vehicle: saline 118 % of control
active: dose: 216.0 micrograms/kg/injection, schedule: Q01DX009 (ip), vehicle: saline 152 % of control and 162 % of control | dose: 360.0 micrograms/kg/injection, schedule: Q01DX009 (ip), vehicle: saline 165 % of control

Cn1cc(F)c(=O)n(C)c1=O
inactive: dose: 30.0 mg/kg/injection, schedule: Q04DX002 (ip), vehicle: saline 96 % of control | dose: 60.0 mg/kg/injection, schedule: Q04DX002 (ip), vehicle: saline 100 % of control | dose: 120.0 mg/kg/injection, schedule: Q04DX002 (ip), vehicle: saline 98 % of control | dose: 125.0 mg/kg/injection, schedule: Q04DX002 (ip), vehicle: saline 96 % of control | dose: 240.0 mg/kg/injection, schedule: Q04DX002 (ip), vehicle: saline 99 % of control | dose: 250.0 mg/kg/injection, schedule: Q04DX002 (ip), vehicle: saline 105 % of control

CN(C)C(=S)/N=c1\ss/c(=N/C(=S)N(C)C)n1-c1ccc([N+](=O)[O-])cc1
inactive: dose: 6.25 mg/kg/injection, schedule: Q01DX009 (ip), vehicle: saline with Tween-80 102 % of control | dose: 12.5 mg/kg/injection, schedule: Q01DX009 (ip), vehicle: saline with Tween-80 103 % of control | [11] 103 % of control

c1ccc2nc3ccccc3nc2c1
inactive: [3] 109 % of control | [12] 104 % of control | [13] 104 % of control | [14] 104 % of control

NC(Cc1cnc[nH]1)C(=O)NC(CO)C(=O)O (stereo not drawn) (H-His-Ser-OH; configuration not given here)
inactive: [15] 96 % of control | [16] 99 % of control | [17] 100 % of control

COc1c2occc2c(OC(C)C(=O)O)c2c(O)cc(=O)oc12 (stereo unspecified)
inactive: [8] 95 % of control | [9] 101 % of control | [10] 95 % of control

OCCNCCNc1ccnc2c1ccc1ccccc12
inactive: [8] 105 % of control

CCNC(=O)Oc1ccc[nH]c1=O
inactive: dose: 25.0 mg/kg/injection, schedule: Q01DX009 (sc), vehicle: water 100 % of control and 103 % of control | [5] 111 % of control and 114 % of control | dose: 50.0 mg/kg/injection, schedule: Q01DX009 (sc), vehicle: water 104 % of control and 109 % of control | [6] 122 % of control | dose: 100.0 mg/kg/injection, schedule: Q01DX009 (sc), vehicle: water 106 % of control and 109 % of control | [7] 118 % of control | dose: 200.0 mg/kg/injection, schedule: Q01DX009 (sc), vehicle: water 108 % of control and 118 % of control | dose: 400.0 mg/kg/injection, schedule: Q01DX009 (ip), vehicle: saline 119 % of control | dose: 400.0 mg/kg/injection, schedule: Q01DX009 (sc), vehicle: water 113 % of control

NC(CCSSCCC(N)P(=O)(O)O)P(=O)(O)O (stereo unspecified)
inactive: [8] 95 % of control | [9] 92 % of control | [10] 99 % of control

C=C(CC(N)=O)C(N)C(=O)O (stereo unspecified)
inactive: [15] 100 % of control | [16] 100 % of control | [17] 100 % of control

O=[N+]([O-])c1cc2ccc3ccoc3c2o1
inactive: [12] 90 % of control | [13] 97 % of control | [14] 96 % of control

COc1cc(NC(C)CCCNC(C)C)c2ncccc2c1OC (stereo unspecified)
inactive: dose: 6.25 mg/kg/injection, schedule: Q01DX005 (ip), vehicle: saline 103 % of control | dose: 12.5 mg/kg/injection, schedule: Q01DX005 (ip), vehicle: saline 93 % of control | dose: 25.0 mg/kg/injection, schedule: Q01DX005 (ip), vehicle: saline 93 % of control

CCOC(=O)C(CNC(=O)c1ccccc1)(NC(C)=O)C(=O)OCC
inactive: dose: 12.5 mg/kg/injection, schedule: Q01DX009 (ip), vehicle: other 121 % of control | dose: 25.0 mg/kg/injection, schedule: Q01DX009 (ip), vehicle: other 121 % of control | dose: 50.0 mg/kg/injection, schedule: Q01DX009 (ip), vehicle: other 112 % of control | dose: 100.0 mg/kg/injection, schedule: Q01DX009 (ip), vehicle: other 97 % of control | dose: 200.0 mg/kg/injection, schedule: Q01DX009 (ip), vehicle: other 103 % of control

COc1ccc2cc3cccc[n+]3cc2c1
inactive: dose: 0.19 mg/kg/injection, schedule: Q01DX005 (ip), vehicle: Klucel (hydroxypropylcellulose) (HPC) 100 % of control | dose: 0.39 mg/kg/injection, schedule: Q01DX005 (ip), vehicle: Klucel (hydroxypropylcellulose) (HPC) 110 % of control | dose: 0.78 mg/kg/injection, schedule: Q01DX005 (ip), vehicle: Klucel (hydroxypropylcellulose) (HPC) 108 % of control and 97 % of control

CC1=NN(c2ccc(S(=O)(=O)O)cc2)C(=O)/C1=C/c1ccc(Cl)cc1
inactive: dose: 50.0 mg/kg/injection, schedule: Q04DX003 (ip), vehicle: saline sonified 100 % of control | dose: 100.0 mg/kg/injection, schedule: Q04DX003 (ip), vehicle: saline sonified 100 % of control | dose: 200.0 mg/kg/injection, schedule: Q04DX003 (ip), vehicle: saline sonified 95 % of control
